US20040053292A1, “Proteins and dna sequences underlying these proteins used for treating inflammations” (priority 2000, published 2004)
Peptide text beside a SMILES is read from it. * marks the point of attachment. Cbz = O=C(OCc1ccccc1)*; CH2F = FC*

System: proIL-1β
Assay: in vitro pro-IL1β activation in THP.1 cell lysates incubated at 30° C., Western blotting
Format: biochemical, human
Conditions: lysates of LPS-prestimulated THP.1 cells at 30° C.
Method: However, THP1 cells express caspase-5 even without LPS activation. FIG. 11c represents the results of experiments which emerge when cell lysates from THP.1 cells which have been prestimulated with LPS were incubated at 30° C. for the periods shown at the top in FIG. 11c. This is because caspase-1 activation is to be observed spontaneously when cytoplasmic cell extracts are heated to 30° C. The activation of caspase-1, caspase-5, caspase-9 and pro-IL1β, followed by Western blotting in the presence or absence of caspase inhibitors zVADfmk (50 μM), YVADfmk (5 μM) and proteasome inhibitor LLnL (50 μM) was measured as a function of time. Cytochrome C (1 ng) was added to activate Apaf-1 and caspase-9. The monoclonal antibodies employed to detect caspase-5 and caspase-9 each recognize the p20 subunit. The four sections of the picture in FIG. 11c depict the respective bands obtained by labeling with anti-caspase-1 antibody, anti-caspase-5 antibody, anti-caspase-9 antibody and anti-IL1β antibody. […]
Addition of the two caspase-1 inhibitors zVADfmk and YVADfmk blocked proIL-1β activation. […] Activation of pro-IL1β, caspase-1 and caspase-5 was measured both in the cell extracts (xt) and in the supernatants (SN). […] The cleavage of […] was detected by an antibody (anti-IL1β*) which specifically recognizes the cleaved form of pro-IL1β, i.e. IL1β*. […]

Compound	proIL-1β activation (zVADfmk 50 μM)	proIL-1β activation (YVADfmk 5 μM)
COC(=O)C[C@H](NC(=O)[C@H](C)NC(=O)[C@@H](NC(=O)OCc1ccccc1)C(C)C)C(=O)CF [zVADfmk] (Cbz-Val-Ala-Asp(OMe)-CH2F)	blocked	–
YVADfmk	–	blocked
